“Also recorded” adds a separate entry of the source. Where no end group is shown, it is not given here.
Experiments:
rabbit synovial lining = test: In vivo transfer of peptide-conjugated β-gal after injection into rabbit knee; conditions: for level of uptake of β-gal into rabbit synovial lining: FIG. 4A, injection into rabbit knee, compared with adenoviral vector encoding β-gal
Procedure: Peptide-β-gal complexes (fusions) were injected into rabbit knee synovial lining, the lining as then removed, washed with wash buffer, fixed with 4% paraformaldehyde, and stained with β-gal.
(§1) Peptide 5 (SEQ ID NO:5) was able to facilitate uptake of β-gal in nearly 100% of the synovial cells in vivo (FIG. 4B).

Hig-82 cells [1] = test: Peptide-β-gal complex internalization, X-gal staining; assay type: cell-based, rabbit; conditions: for transduction/transfer activity of the peptide (in words): as summarised with CD spectra and competition data; for relative strength of internalization of β-gal (concentration needed): FIG. 1B, various concentrations of peptide linked to β-gal, 1:1=150 nM of β-gal
Procedure: (§2) Internalizing peptides 1-6 (SEQ ID Nos:1-6 respectively), which were identified as described above in Example 3, were synthesized, and biotinylated (synthesis and biotinylation performed by the Biotech Center of the University of Pittsburgh). The biotinylated peptides were then conjugated to avidin β-gal or avidin Cy3 at room temperature for 2 hours.
(§3) The peptide conjugates were then added to cells (Hig-82 cells, rabbit synovial cells, human synovial cells, rabbit synovial lining, human primary airway cells HBE 144, human primary islet cells, murine myoblast cells C2C12, dog kidney epithelial cells MDCK, murine fibroblast cells NIH3T3 and murine tumor cells MCA 205 (human synovial cells and human primary airway cells (HBE144) were isolated from patients from the Presbyterian Hospital, University of Pittsburgh by standard techniques for establishing a primary cell culture; human islet cells were provided by the University of Miami and were isolated by standard techniques for establishing a primary cell culture; C2C12, MDCK, 3T3 and MCA205 cells were purchased from ATTC, Bethesda, Md.; all cells were cultured in DMEM and grown to 100% confluency) and incubated while gently rotating at 37° C. for 3 hours with TBS buffer. The cells were then washed 10 times with TBS buffer and fixed with 4% paraformaldehyde at room temperature for 30 minutes. Cells were then washed 3 times with TBS buffer and stained with 1 mg/ml X-gal (Bochringer Mannheim, Indianapolis) at 37° C. overnight for β-gal-conjugated peptides. Cells which were blue indicated the presence of β-gal in the cells. For Cy3-conjugated peptides, fluorescence of the cells as measured by confocal microscopy indicated the ability of the peptide to internalize the Cy3 (a small molecule cargo).
TAT-PTD (YGRKKRRQRRR; SEQ ID NO:21), and a random control peptide (ARPILEHGSDKAT; SEQ ID NO:20). […] In FIG. 1B, various concentrations of peptides linked to β-gal were tested (1:1=150 nM of β-gal).

[2] = system: rabbit synovial fibroblasts; test: Internalization of Cy3-labeled peptide/M13 phage complex; assay type: cell-based; conditions: FIG. 13D vs control phage
From the text: Therefore, the peptides of the present invention are useful for facilitating the internalization of virus and viral vectors.

human synovial cells = test: Peptide-β-gal internalization, X-gal staining; assay type: cell-based; conditions: human (primary) synovial cells; FIG. 3, 6C
Procedure: as §2, §3

rabbit synovial cells = test: Peptide-β-gal internalization, X-gal staining; assay type: cell-based; conditions: rabbit (primary) synovial cells; FIG. 2, 6B
Procedure: as §2, §3

Hig-82 cells [3] = test: Peptide competition assay for internalization of peptide-conjugated β-gal; assay type: cell-based, rabbit; conditions: for blocking of internalization of peptide-conjugated β-gal by non-biotinylated peptide: FIG. 5, conjugates of peptide 2, 3, 4 and 5, 3 hours at 37° C.
Procedure: A peptide competition assay was carried out to determine the relative efficiency and specificity of the various peptides. The peptides were conjugated to β-gal as described above in Example 4 and incubated with Hig-82 cells grown to 85% confluency in 24 well plates in the presence of non biotinylated peptides for 3 hours at 37° C. in TBS buffer while being gently rotated. The cells were then washed 10 times with TBS buffer, fixed with 4% paraformaldehyde at room temperature for 30 minutes, washed 3 times with TBS buffer, and stained with Xgal, as described above in Example 4, overnight. Cells which stained blue had internalized peptide-conjugated β-gal.

MCA 205 tumor cells = test: Intra-tumoral injection of peptide-β-gal complex, X-gal staining of tumor; assay type: in vivo, mouse; conditions: day 14 subcutaneous MCA-205 tumors, single intra-tumoral injection
Procedure: as §1
To make the nucleic acid encoding the peptide-eGFP fusion depicted in FIG. 9A, PCR was employed using 5′ and 3′ primers that encoded the peptide and a his tag, respectively, and had complimentary sequences to eGFP DNA coding sequences. […] MCA 205 tumor cells (5×10^5 cells) were injected subcutaneously into the flank of a C57/BL6 mouse. At day 14, a single intra-tumoral injection of the peptide β-gal complex was performed. The mice were sacrificed 3 hours post-injection and the tumor tissue was isolated, sectioned and stained with X-gal.

Hig-82 cells [4] = test: Internalization of peptide-streptavidin-488 complex, fluorescence and confocal microscopy; assay type: cell-based, rabbit
From the text: See Bayer et al., Histochem. Cytochem. 24:933-939 (1976); Ivanenkov & Menon, Biochim. Biophys. Acta. 1448:463-472 (1999). The use of the 488 flourescent marker allows for analysis of the treated cells by confocal microscopy to determine the exact location of the complexes in the cells.

human dendritic cells = test: Internalization of peptide5-eGFP fusion protein, fluorescence; assay type: cell-based; conditions: peptide fused to eGFP; FIG. 9F-G
NIH3T3 cells = test: Peptide-β-gal uptake, X-gal staining; assay type: cell-based, murine; conditions: FIG. 6I
Procedure: as §3, with “Cells which were blue indicated the presence of β-gal in the cells.” left out, “cargo). […]” for “cargo).”

[5] = system: HBE 144 primary human airway epithelial cells; test: Peptide-β-gal uptake, X-gal staining; assay type: cell-based; conditions: FIG. 6D
Procedure: as §3
(§4) FIG. 9A is a schematic representation of the expression construct encoding the peptide5-eGFP fusion protein.

[6] = system: C2C12 murine myoblast cells; test: Peptide-β-gal uptake, X-gal staining; assay type: cell-based; conditions: FIG. 6G
Procedure: as §3, §4

[7] = system: human β islet primary cells; test: Peptide-β-gal uptake, X-gal staining; assay type: cell-based; conditions: FIG. 6F
Procedure: as §3, §4

[8] = system: MCA205 murine fibrosarcoma cells; test: Peptide-β-gal uptake, X-gal staining; assay type: cell-based; conditions: FIG. 6H
Procedure: as §3, §4

[9] = system: MDCK polarized canine kidney cells; test: Peptide-β-gal uptake, X-gal staining; assay type: cell-based; conditions: FIG. 6E
Procedure: as §3, §4

CD34+/LIN− stem cells = test: Transduction with biotin-peptide/avidin-β-gal complex; assay type: cell-based; conditions: FIG. 17
From the text: Peptide 5 is biotin labeled and the β-gal is avidin labeled so that they may be linked together by an avidin/biotin interaction. The cells which stained dark were transduced with the peptide/β-gal complex as indicated by an arrow.

HIG82 cells = test: Cell viability by MTT assay (OD 570 nm); assay type: cell-based, rabbit; conditions: HIG-82 cells; 100-3.1 μM peptide, three hours; FIG. 14, 15
Procedure: 2×10^5 cells (HIG82, MCA205 or Jurkatt) were seeded into 24 well plates. Forty-eight hours later, 100 μM, 50 μM, 25 μM, 6.25 μM and 3.1 μM of the either the death peptide (SEQ ID NO:24), peptide 5 alone (SEQ ID NO:5) or the apoptotic peptide alone (SEQ ID NO:23) was added to the cells. To check for cell viability, three hours later, the media was aspirated and 1 ml of scrum-free media containing 0.25 mg of MTT was added to each well and incubated for 4 hours at 37° C. MTT-containing media was then removed and 1 ml of absolute isopropanol containing 0.4N HCl was added. Photographs were taken of the plates, then the cells were harvested and any debris was centrifuged. OD as taken at λ=570 nm. Each sample point was performed in triplicate.

human islets = test: Internalization of peptide5-eGFP fusion protein, fluorescence; assay type: cell-based; conditions: peptide fused to eGFP; FIG. 9B-E
MCA205 tumors = test: Growth of MCA205 fibrosarcomas under daily intra-tumoral injection; assay type: in vivo; conditions: repeated administration
Procedure: To determine whether the death peptide could induce apoptosis in tumor cells and inhibit tumor growth in vivo, C57BL/6 mice bearing day 7 tumors in each […] (seeded with 1×10^5 MCA205 cells) were injected daily for 10 days with a 50 μl volume of 1 mM death peptide (SEQ ID NO:24; DP1) or the apoptotic peptide alone (SEQ ID NO:23; KLA) or a saline mock into both tumors. Five mice were used in each group. Tumor volume was estimated by multiplying maximum length×width^2. Separately, C57BL/6 with single, day 12 tumors were injected with 1 mM death peptide (SEQ ID NO:24; DP1), apoptotic peptide alone (SEQ ID NO:23; KLA) or saline for eleven days. Ten mice comprised each group. On the final day, the mice were injected with the appropriate saline or peptide solution and sacrificed 3 hours post-injection. Tumors were paraffin-embedded, sectioned, and stained for TUNEL and counterstained with methyl green or stained with hematoxylin and eosin to reveal histologic architecture.

[10] = FIG. 12, 100 fold excess of competitor

Sequence | level of uptake of β-gal into rabbit synovial lining (rabbit synovial lining) | transduction/transfer activity of the peptide (in words) (Hig-82 cells [1]) | internalization of intact M13 phage (and nuclear localization of protein complexes) [2] | internalization of β-gal (rabbit synovial cells) | blocking of internalization of peptide-conjugated β-gal by non-biotinylated peptide (Hig-82 cells [3]) | β-gal staining / internalization in murine tumors in vivo (MCA 205 tumor cells) | other results
ARPILEHGSDKAT (ARPLEHGSDKAT; random peptide library) [reference compound] | no uptake | does not have activity |  |  |  |  | 
KRIHPRLTRSIR (random peptide library) [peptide 2] |  | intermediate activity | able to facilitate internalization and nuclear localization of protein complexes as well as intact M13 phage |  |  |  | 
KRIIQRILSRNS (random peptide library) [peptide 1] |  | lower activity |  | facilitate the internalization of β-gal into rabbit synovial cells | did not block the internalization by any of the peptides |  | internalization of β-gal (human synovial cells): facilitate the internalization of β-gal into human synovial cells
MHKRPTTPSRKM (random peptide library) [peptide 6] |  | only weakly able to transduce cells |  |  |  |  | transduction/transfer activity of the peptide (in words) (Hig-82 cells [1]; listed as SEQ ID NO:6): lower activity; inhibition of uptake of peptide 2 and 3 (Hig-82 cells [3]; FIG. 12): able to inhibit
PIRRRKKLRRLK (random peptide library) [peptide 4] | highest level of uptake | highly active | able to facilitate internalization and nuclear localization of protein complexes as well as intact M13 phage |  | blocked the internalization of peptide 2 through peptide 6-conjugated β-gal |  | 
PPRLRKRRQLNM (random peptide library) [peptide 3] |  | intermediate activity | able to facilitate internalization and nuclear localization of protein complexes as well as intact M13 phage | facilitate the internalization of β-gal into rabbit synovial cells |  | facilitate the internalization of β-gal into murine tumor cells in vivo | relative strength of internalization of β-gal (concentration needed) (Hig-82 cells [1]): achieved internalization of β-gal at a slightly higher concentration
RQIKIWFQNRRMKWKK (antennepedia) [antennapedia peptide, reference compound] |  |  |  |  |  | facilitate the internalization of β-gal into murine tumor cells in vivo | 
RRQRRTSKLMKR (random peptide library) [peptide 5] | highest level of uptake | highly active | detected in the treated cells | facilitate the uptake of β-gal | blocked the internalization of peptide 2 through peptide 6-conjugated β-gal | significant β-gal staining; also recorded: facilitate the internalization of β-gal into murine tumor cells in vivo | internalization of β-gal (human synovial cells): facilitate the internalization of β-gal into human synovial cells; also recorded: facilitate the uptake of β-gal; internalization of streptavidin-488 complex (Hig-82 cells [4]; FIG. 13A, biotinylated peptide coupled to streptavidin-488): efficient internalization; nuclear localization of peptide-streptavidin-488 complex (Hig-82 cells [4]; FIG. 13B, confocal microscopy): significant percentage of the peptide-streptavidin-488 complex being found in the nucleus; synovial cells with uptake of β-gal in vivo (rabbit synovial lining; FIG. 4B, histology, eosin counter-stain): ~100%; internalization of eGFP (human dendritic cells): facilitate the internalization of EGFP in human dendritic cells; uptake of β-gal (NIH3T3 cells): facilitate the uptake of β-gal; uptake of β-gal [5]: facilitate the uptake of β-gal; uptake of β-gal [6]: facilitate the uptake of β-gal; uptake of β-gal [7]: facilitate the uptake of β-gal; uptake of β-gal [8]: facilitate the uptake of β-gal; uptake of β-gal [9]: facilitate the uptake of β-gal; relative strength of internalization of β-gal (concentration needed) (Hig-82 cells [1]): effect internalization of β-gal linked thereto at a concentration equal to or less than TAT-PTD; uptake of β-gal (Hig-82 cells [1]; FIG. 6A, HIG-82 cells): facilitate the uptake of β-gal; transduction of stem cells with β-gal (CD34+/LIN− stem cells): transduce CD34+/LIN− stem cells; inhibition of uptake of TAT-PTD and peptide 5 itself (Hig-82 cells [3]; [10]): significantly inhibit; inhibition of uptake of peptides 3, 4 and antennapedia peptide (Hig-82 cells [3]; [10]): completely inhibit; cell viability (MTT, OD570) (HIG82 cells): did not impair viability; internalization of eGFP (human islets): facilitate internalization of eGFP in human islets
RRQRRTSKLMKRGGKLAKLAKKLAKLAK [death peptide] |  |  |  |  |  |  | side-effects in treated mice (MCA205 tumors): no obvious side-effects
YGRKKRRQRRR (human) [TAT-PTD, reference compound] | highest level of uptake |  |  |  |  |  | 
